Measurements: ChEMBL document CHEMBL1909046, “DrugMatrix in vitro pharmacology data”

Legend:
[1] = molecular target: T1, Alpha-1B adrenergic receptor (Rattus norvegicus, UniProt P15823); experiment: DRUGMATRIX: Alpha-1B adrenergic receptor radioligand binding (ligand: prazosin); type: cell membranes, Wistar, Liver, Membrane; conditions: Not Active = under 50% inhibition at 10 µM
T1 sequence (P15823 whole entry): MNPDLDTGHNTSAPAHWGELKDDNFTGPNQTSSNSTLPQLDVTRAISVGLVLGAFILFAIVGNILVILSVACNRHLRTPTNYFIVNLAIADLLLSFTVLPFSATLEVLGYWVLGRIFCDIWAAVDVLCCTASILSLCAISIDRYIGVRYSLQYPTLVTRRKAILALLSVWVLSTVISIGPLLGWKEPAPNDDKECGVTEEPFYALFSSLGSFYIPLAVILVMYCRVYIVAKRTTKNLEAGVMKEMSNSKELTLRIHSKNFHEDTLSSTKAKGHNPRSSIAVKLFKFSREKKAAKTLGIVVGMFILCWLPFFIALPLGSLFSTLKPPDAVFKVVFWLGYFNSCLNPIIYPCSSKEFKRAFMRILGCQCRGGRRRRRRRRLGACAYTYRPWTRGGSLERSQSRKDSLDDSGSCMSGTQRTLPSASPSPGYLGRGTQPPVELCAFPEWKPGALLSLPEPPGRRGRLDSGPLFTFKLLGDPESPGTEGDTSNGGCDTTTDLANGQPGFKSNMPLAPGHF

[2] = DRUGMATRIX: Imidazoline I2, Central radioligand binding (ligand: [3H] Idazoxan); type: cell membranes, Rattus norvegicus, Wistar, Cerebral cortex, Membrane; conditions: Not Active = under 50% inhibition at 10 µM
Cathepsin G = molecular target: T2, Cathepsin G (Homo sapiens, UniProt P08311); type: tissue-based; conditions: neutrophil;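 note: inhibition of Cathepsin G enzyme activity, tested on an AMC-conjugated peptide substrate; in other assays of this panel Not Active means under 50% inhibition at 10 µM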
T2 sequence (P08311 whole entry): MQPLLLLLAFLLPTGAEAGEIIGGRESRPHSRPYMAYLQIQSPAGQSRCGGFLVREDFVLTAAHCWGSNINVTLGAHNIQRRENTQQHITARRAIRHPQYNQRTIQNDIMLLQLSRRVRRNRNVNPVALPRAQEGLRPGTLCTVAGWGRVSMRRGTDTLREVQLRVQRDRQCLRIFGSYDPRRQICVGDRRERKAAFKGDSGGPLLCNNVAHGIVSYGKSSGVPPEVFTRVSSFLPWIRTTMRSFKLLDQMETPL

[3] = molecular target: T3, C-X-C chemokine receptor type 1 (Homo sapiens, UniProt P25024); note: in other assays of this panel Not Active means under 50% inhibition at 10 µM
T3 sequence (P25024 whole entry): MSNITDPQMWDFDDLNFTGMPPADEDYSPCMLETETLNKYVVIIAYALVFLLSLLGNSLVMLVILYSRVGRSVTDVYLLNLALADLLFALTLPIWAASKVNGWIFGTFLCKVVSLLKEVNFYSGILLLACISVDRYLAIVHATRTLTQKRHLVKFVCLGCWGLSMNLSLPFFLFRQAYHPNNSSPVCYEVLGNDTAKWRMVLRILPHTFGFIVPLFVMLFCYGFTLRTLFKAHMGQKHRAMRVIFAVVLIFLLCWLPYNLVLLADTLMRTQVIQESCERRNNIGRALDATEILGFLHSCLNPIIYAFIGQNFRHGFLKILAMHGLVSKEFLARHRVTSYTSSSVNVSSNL

[4] = molecular target: Beta-3 adrenergic receptor (Homo sapiens, UniProt P13945); experiment: DRUGMATRIX: Adrenergic beta3 radioligand binding (ligand: [125I] Cyanopindolol); type: cell membranes, Membrane; conditions: hek293; Not Active = under 50% inhibition at 10 µM
Beta-3 adrenergic receptor, sequence (P13945 whole entry): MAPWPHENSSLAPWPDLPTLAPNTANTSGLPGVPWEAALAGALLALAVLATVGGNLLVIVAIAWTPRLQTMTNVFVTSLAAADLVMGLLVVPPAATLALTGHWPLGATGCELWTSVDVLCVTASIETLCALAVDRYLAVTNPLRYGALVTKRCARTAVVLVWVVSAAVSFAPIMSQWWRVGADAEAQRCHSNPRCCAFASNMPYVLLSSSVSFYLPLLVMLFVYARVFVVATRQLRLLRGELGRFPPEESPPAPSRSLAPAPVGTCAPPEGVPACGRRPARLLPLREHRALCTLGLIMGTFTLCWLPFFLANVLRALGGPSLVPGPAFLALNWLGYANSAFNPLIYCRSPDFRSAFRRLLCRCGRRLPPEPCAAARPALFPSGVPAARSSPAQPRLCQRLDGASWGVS

[5] = DRUGMATRIX: Phorbol Ester radioligand binding (ligand: [3H] PDBu); type: cell membranes, Mus musculus, ICR, Brain, Membrane; conditions: Not Active = under 50% inhibition at 10 µM
[6] = DRUGMATRIX: Atrial Natriuretic Factor (ANF) radioligand binding (ligand: [125I] ANF (rat)); type: cell membranes, Cavia porcellus, Dunkin-Hartley, Adrenal gland, Membrane; conditions: Not Active = under 50% inhibition at 10 µM
Nitric oxide synthase 1 = Nitric oxide synthase 1 (Rattus norvegicus, UniProt P29476); type: tissue-based, Cerebellum; note: in other assays of this panel Not Active means under 50% inhibition at 10 µM
Nitric oxide synthase 1, sequence (P29476 whole entry): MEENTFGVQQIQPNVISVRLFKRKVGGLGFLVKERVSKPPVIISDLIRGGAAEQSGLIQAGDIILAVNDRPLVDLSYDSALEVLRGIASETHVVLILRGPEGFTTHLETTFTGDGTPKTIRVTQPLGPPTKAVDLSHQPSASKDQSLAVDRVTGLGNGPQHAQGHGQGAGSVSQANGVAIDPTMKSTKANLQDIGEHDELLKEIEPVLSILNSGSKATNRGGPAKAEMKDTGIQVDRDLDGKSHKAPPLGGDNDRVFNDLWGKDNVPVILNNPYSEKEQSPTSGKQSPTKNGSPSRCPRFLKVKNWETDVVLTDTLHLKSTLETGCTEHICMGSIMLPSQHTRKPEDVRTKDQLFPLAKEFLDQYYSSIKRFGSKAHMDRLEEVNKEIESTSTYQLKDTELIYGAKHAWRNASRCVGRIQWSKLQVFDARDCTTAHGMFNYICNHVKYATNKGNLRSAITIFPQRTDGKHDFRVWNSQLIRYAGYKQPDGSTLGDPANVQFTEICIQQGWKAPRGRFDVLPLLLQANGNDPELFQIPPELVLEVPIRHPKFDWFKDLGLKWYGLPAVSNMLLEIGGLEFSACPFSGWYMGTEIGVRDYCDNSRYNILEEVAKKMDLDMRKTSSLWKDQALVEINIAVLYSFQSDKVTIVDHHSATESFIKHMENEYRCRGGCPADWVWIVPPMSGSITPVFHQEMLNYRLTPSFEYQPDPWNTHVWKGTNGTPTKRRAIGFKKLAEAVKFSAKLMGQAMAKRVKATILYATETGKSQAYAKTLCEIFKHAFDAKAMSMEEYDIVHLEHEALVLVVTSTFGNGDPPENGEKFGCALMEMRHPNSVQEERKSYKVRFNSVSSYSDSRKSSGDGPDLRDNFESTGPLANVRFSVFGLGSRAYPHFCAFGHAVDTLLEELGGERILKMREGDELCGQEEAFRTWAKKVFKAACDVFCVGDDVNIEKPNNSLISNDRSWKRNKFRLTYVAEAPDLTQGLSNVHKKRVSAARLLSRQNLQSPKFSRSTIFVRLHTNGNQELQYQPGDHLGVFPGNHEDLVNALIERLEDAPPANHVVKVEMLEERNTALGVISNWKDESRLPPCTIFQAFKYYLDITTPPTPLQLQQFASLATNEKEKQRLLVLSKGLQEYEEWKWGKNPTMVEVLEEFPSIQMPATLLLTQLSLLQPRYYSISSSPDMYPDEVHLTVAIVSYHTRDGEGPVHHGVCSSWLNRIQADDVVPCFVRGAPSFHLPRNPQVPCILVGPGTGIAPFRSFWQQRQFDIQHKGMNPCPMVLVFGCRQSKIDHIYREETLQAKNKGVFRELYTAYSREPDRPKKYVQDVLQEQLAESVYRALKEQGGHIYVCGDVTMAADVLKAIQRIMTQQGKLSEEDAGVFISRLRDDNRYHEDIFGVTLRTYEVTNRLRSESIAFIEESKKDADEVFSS

[7] = DRUGMATRIX: Calcium Channel Type L, Phenylalkylamine radioligand binding (ligand: [3H] (-)-Desmethoxyverapamil (D-888)); type: cell membranes, Rattus norvegicus, Wistar, Brain, Membrane; conditions: Not Active = under 50% inhibition at 10 µM

CCOC(=O)C(C)(C)Oc1ccc(Cl)cc1 [CLOFIBRATE]
Not Active: IC50 [1] | IC50 [2] | Ki [2] | IC50 (Cathepsin G) | IC50 [3] | IC50 [4] | IC50 [5] | Ki [5] | IC50 [6] | Ki [6] | IC50 (Nitric oxide synthase 1) | IC50 [7] | Ki [7]

CC(=O)OCC(=O)[C@@]1(O)CC[C@H]2[C@@H]3CCC4=CC(=O)CC[C@]4(C)[C@H]3C(=O)C[C@@]21C [CORTISONE ACETATE]
Not Active: IC50 [1] | IC50 [2] | Ki [2] | IC50 (Cathepsin G) | IC50 [3] | IC50 [4] | IC50 [5] | Ki [5] | IC50 [6] | Ki [6] | IC50 (Nitric oxide synthase 1) | IC50 [7] | Ki [7]

O=c1ccc2ccccc2o1 [COUMARIN]
Not Active: IC50 [1] | IC50 [2] | Ki [2] | IC50 (Cathepsin G) | IC50 [3] | IC50 [4] | IC50 [5] | Ki [5] | IC50 [6] | Ki [6] | IC50 (Nitric oxide synthase 1) | IC50 [7] | Ki [7]

C[C@@H]1C[C@@H]([C@H](O)CC2CC(=O)NC(=O)C2)C(=O)[C@@H](C)C1 [CYCLOHEXIMIDE]
Not Active: IC50 [1] | IC50 [2] | Ki [2] | IC50 (Cathepsin G) | IC50 [3] | IC50 [4] | IC50 [5] | Ki [5] | IC50 [6] | Ki [6] | IC50 (Nitric oxide synthase 1) | IC50 [7] | Ki [7]

C/C=C/C[C@@H](C)[C@@H](O)[C@H]1C(=O)N[C@@H](CC)C(=O)N(C)CC(=O)N(C)[C@@H](CC(C)C)C(=O)N[C@@H](C(C)C)C(=O)N(C)[C@@H](CC(C)C)C(=O)N[C@@H](C)C(=O)N[C@H](C)C(=O)N(C)[C@@H](CC(C)C)C(=O)N(C)[C@@H](CC(C)C)C(=O)N(C)[C@@H](C(C)C)C(=O)N1C [CYCLOSPORINE]
Not Active: IC50 [1] | IC50 [2] | Ki [2] | IC50 (Cathepsin G) | IC50 [3] | IC50 [4] | IC50 [5] | Ki [5] | IC50 [6] | Ki [6] | IC50 (Nitric oxide synthase 1) | IC50 [7] | Ki [7]

CN(C)/N=N/c1[nH]cnc1C(N)=O [DACARBAZINE]
Not Active: IC50 [1] | IC50 [2] | Ki [2] | IC50 (Cathepsin G) | IC50 [3] | IC50 [4] | IC50 [5] | Ki [5] | IC50 [6] | Ki [6] | IC50 (Nitric oxide synthase 1) | IC50 [7] | Ki [7]

COc1ccc2c(c1)[C@]13CCCC[C@@H]1[C@H](C2)N(C)CC3 [DEXTROMETHORPHAN]
Not Active: IC50 [1] | IC50 [2] | Ki [2] | IC50 (Cathepsin G) | IC50 [3] | IC50 [4] | IC50 [5] | Ki [5] | IC50 [6] | Ki [6] | IC50 (Nitric oxide synthase 1) | IC50 [7] | Ki [7]

CC(=O)Nc1c(I)c(NC(C)=O)c(I)c(C(=O)O)c1I [DIATRIZOIC ACID]
Not Active: IC50 [1] | IC50 [2] | Ki [2] | IC50 (Cathepsin G) | IC50 [3] | IC50 [4] | IC50 [5] | Ki [5] | IC50 [6] | Ki [6] | IC50 (Nitric oxide synthase 1) | IC50 [7] | Ki [7]

COP(=O)(OC)OC=C(Cl)Cl [DICHLORVOS]
Not Active: IC50 [1] | IC50 [2] | Ki [2] | IC50 (Cathepsin G) | IC50 [3] | IC50 [4] | IC50 [5] | Ki [5] | IC50 [6] | Ki [6] | IC50 (Nitric oxide synthase 1) | IC50 [7] | Ki [7]

O=C(O)Cc1ccccc1Nc1c(Cl)cccc1Cl [DICLOFENAC]
Not Active: IC50 [1] | IC50 [2] | Ki [2] | IC50 (Cathepsin G) | IC50 [3] | IC50 [4] | IC50 [5] | Ki [5] | IC50 [6] | Ki [6] | IC50 (Nitric oxide synthase 1) | IC50 [7] | Ki [7]

C[C@H]1O[C@@H](O[C@H]2[C@@H](O)C[C@H](O[C@H]3[C@@H](O)C[C@H](O[C@H]4CC[C@@]5(C)[C@H](CC[C@@H]6[C@@H]5CC[C@]5(C)[C@@H](C7=CC(=O)OC7)CC[C@]65O)C4)O[C@@H]3C)O[C@@H]2C)C[C@H](O)[C@@H]1O [DIGITOXIN]
Not Active: IC50 [1] | IC50 [2] | Ki [2] | IC50 (Cathepsin G) | IC50 [3] | IC50 [4] | IC50 [5] | Ki [5] | IC50 [6] | Ki [6] | IC50 (Nitric oxide synthase 1) | IC50 [7] | Ki [7]

CCN1CC(CCN2CCOCC2)C(c2ccccc2)(c2ccccc2)C1=O (stereo unspecified) [DOXAPRAM]
Not Active: IC50 [1] | IC50 [2] | Ki [2] | IC50 (Cathepsin G) | IC50 [3] | IC50 [4] | IC50 [5] | Ki [5] | IC50 [6] | Ki [6] | IC50 (Nitric oxide synthase 1) | IC50 [7] | Ki [7]
